Assay results published in patent US20090035758A1, “Method of Measurement of Micronucleated Erythrocyte Populations” (BECKMAN COULTER, INC., priority 2007, published 2009).

Test system: micronucleated reticulocytes (MNPCE) in mouse peripheral blood
Conditions: in vivo, 50 mg/kg, 24 h
Protocol: 200 to 300 μl of a peripheral blood sample was collected from a mouse using orbital veinipuncture into a test tube containing heparin. The sample was kept at room temperature for analysis.
10 μl of the anticoagulated blood sample was diluted with 290 μl of the isotonic diluent of Example 1 in a test tube. 10 μl of anti CD71-FITC monoclonal antibody at saturating concentration was added into the diluted blood, and the test tube was vortexed and then incubated at room temperature for 30 minutes. 20 μl of the diluted sample containing anti CD71-FITC antibody was taken into a second test tube, and 400 μl of the permeation reagent of Example 1 was added and vortexed immediately. The formed permeation sample mixture was incubated at room temperature for 10 minutes. […]
The final sample mixture was analyzed on a FC500 MCL cytometer (Beckman Coulter, Inc., Fullerton, Calif.). […]
Both FL1 and FL4 were in a logarithmic scale. FL1 and FL4 were the fluorescent signals of the final sample mixture detected at 525 nm and 675 nm, respectively. […]
A mouse was treated with methyl methane sulfonate with a dosage of 50 mg/Kg 24 hours prior to the blood collection. The peripheral blood was collected and processed as described in Example 2, and the final sample mixture was analyzed on the same FC500 MCL cytometer with the identical instrument setting.

COS(C)(=O)=O [methyl methane sulfonate]
micronucleated reticulocytes (percentage of reticulocytes containing micronuclei): 1.30%
